# Results as given in patent publication US11229608B2 (priority 2019, dated 2022).
# “Also recorded” adds a separate entry of the source.
# Tested on: ornamental vinca (vincire) plants
# Experiment: Phytotoxicity assessment on vinca plants after foliar application
# Assay type: in vivo
# Design: key to Phytotoxicity rating: −: non-phytotoxic; +: minimal phytotoxic; ++: moderate phytotoxic; +++: heavy phytotoxic
# Settings: 72 hours; for Phytotoxicity rating: visual
# Procedure: Ornamental vinca plants are susceptible to metal phytotoxicity such as Cu and used as industry standard. 3 plants were foliar sprayed with each treatments and controls at three different rates, 300 ppm, 600 ppm and 1,000 ppm. Test solutions were foliar applied using hand-operated pump mist sprayer till run off. Afterwards, plants were placed in plant growth chamber (Panasonic MLR-325H-PA) programmed to simulate summer conditions (maximum temperature set at 31° C.). Visual observations were conducted after 72 hours application to assess the overall plant health and phytotoxicity rating.
# The assessment was done visually based on size and number of burns on plants after 72 hours of foliar application. Vinca (vincire) plant phytotoxicity rating on a scale of “−” non-phytotoxic, “+” minimal phytotoxic, “++” moderate phytotoxic, and (+++) heavy phytotoxic.
SMILES,"phytotoxicity (in words) (1,000 μg/ml (ppm))",Phytotoxicity rating (metal concentration 1000 μg/ml),phytotoxicity (in words) (300 μg/ml),phytotoxicity (in words) (600 μg/ml),Phytotoxicity rating (metal concentration 300 μg/ml),Phytotoxicity rating (metal concentration 600 μg/ml)
O=[N+]([O-])[O-].O=[N+]([O-])[O-].[Cu+2] [Copper nitrate],severely phytotoxic,+++,,,,
O=[N+]([O-])[O-].O=[N+]([O-])[O-].[Zn+2] [Zinc nitrate],moderately phytotoxic,++,non-phytotoxic,moderately phytotoxic; also recorded: minimally phytotoxic,−,+
